The values that follow come from article PMC4728560 (Scientific Reports, 2016).

In test [1] the test system is Bcl-xL inhibition of cBid/Bax. Description: In vitro reconstitution liposome permeabilization, cBid/Bax with Bcl-xL. It is filed as biochemical. The following applies: ANTS/DPX liposomes, 100 nM Bax, 20 nM cBid, pre-incubation pH 9, 45 min, 37 °C, 5 h, pH 7. An excerpt: This purified assay system measures direct interactions in which full-length untagged Bcl-xL inhibits permeabilization by binding full-length caspase 8 cleaved Bid (cBid) and/or full-length untagged Bax, thereby preventing Bax oligomerization in membranes. […] In these assays liposome permeabilization by activated Bax releases the entrapped fluorophore/quencher pair 8-aminonaphthalene-1,3,6-trisulfonic acid (ANTS)/p-xylene-bispyridinium (DPX), resulting in a measurable increase of fluorescence.
(A–E) in vitro reconstitution assay on liposome permeabilization. […] The treated Bcl-xL was then added to reactions containing ANTS-DPX liposomes, 100 nM Bax and 20 nM of either cBid (A,B) or cBidmt1(C,D) at pH 7. Liposome permeabilization was quantified by fluorescence after 5h incubation at 37 °C where 100% release was defined as the fluorescence change due to lipid solubilization with 1% Triton X-100. […] Error bars, std. dev. n = 3. […] Cyto c extra-mito: in the supernatant, analysed by Western blot. […]
(§1) Figure 10 A,B) or cBid mt1 (Supplementary Figure 10 C,D) at pH 7 to quantify the activity of Bcl-xL inhibition of liposome permeablization. […]
then added to reactions containing ANTS-DPX liposomes, 100nM Bax and 20nM of either c Bid (A, C) or cBid mt1(B, D) at pH 7 and liposome permeabilization was quantified by fluorescence […]

The test system of a further test is cBidmt1+Bax. Description: Control liposome permeabilization without Bcl-xL, cBidmt1+Bax. Format: biochemical. To be noted: 320 nM pH9 treated TCTP, 100 nM Bax, 20 nM cBidmt1. Here is the method:
(A–E) in vitro reconstitution assay on liposome permeabilization. […] The treated Bcl-xL was then added to reactions containing ANTS-DPX liposomes, 100 nM Bax and 20 nM of either cBid (A,B) or cBidmt1(C,D) at pH 7. Liposome permeabilization was quantified by fluorescence after 5h incubation at 37 °C where 100% release was defined as the fluorescence change due to lipid solubilization with 1% Triton X-100. […] Error bars, std. dev. n = 3. To compare between the TCTP treated groups and the Control group statistically, two-way ANOVA test was performed for (A–D) and one-way ANOVA test was performed for (E). […] Colored asterisks above each data point indicate the statistical significance (*p < 0.05; **p < 0.01, no asterisks if p ≥ 0.05). A complete statistical analysis is provided in Supplementary Table 2–4. (F) Permeabilization assays of mitochondrial membrane by tBid and Bax assessing cytochrome c release. […] Cyto c extra-mito: in the supernatant, analysed by Western blot. […]
as §1
the Control group (No TCTP) were analyzed through Dunnett's multiple comparisons test at each sample condition (Bcl-XL concentration) for statistical significance. […]
Statistical significance was analyzed through Dunnett's multiple comparisons test. […]

Take “TCTP: Translationally Controlled Tumor Protein (TCTP/tpt1), recombinant full-length”: in test [1], the “effect on Bcl-xL inhibition of cBid/Bax-mediated liposome permeabilization” value is “enhanced Bcl-xL inhibition”. Also, the “effect on cBidmt1-Bax induced permeabilization not containing Bcl-xL” value in the test on cBidmt1+Bax is “no effect”.
